In US4681894A, “Hydroxamic acids and esters” (Ortho Pharmaceutical Corporation, priority 1986, dated 1987):

Experiments:
5-lipoxygenase = biological target: T1, 5-lipoxygenase (Rattus norvegicus, UniProt P12527); test: Inhibition of 5-lipoxygenase (5-HETE production) in whole RBL-1 cells; type: cell-based; settings: in vitro, RBL-1 whole cells, A23187 1.9 μM, 55 μM 14C-arachidonic acid, 37° C; highest concentration tested 10 μM; read-out: IC50 (lipoxygenase inhibitory activity)
T1 construct: 5-HETE Production in Whole Cells; endogenous in cells; host or cells: RBL-1 (rat basophilic leukemia cells)
T1 sequence (P12527 1-673): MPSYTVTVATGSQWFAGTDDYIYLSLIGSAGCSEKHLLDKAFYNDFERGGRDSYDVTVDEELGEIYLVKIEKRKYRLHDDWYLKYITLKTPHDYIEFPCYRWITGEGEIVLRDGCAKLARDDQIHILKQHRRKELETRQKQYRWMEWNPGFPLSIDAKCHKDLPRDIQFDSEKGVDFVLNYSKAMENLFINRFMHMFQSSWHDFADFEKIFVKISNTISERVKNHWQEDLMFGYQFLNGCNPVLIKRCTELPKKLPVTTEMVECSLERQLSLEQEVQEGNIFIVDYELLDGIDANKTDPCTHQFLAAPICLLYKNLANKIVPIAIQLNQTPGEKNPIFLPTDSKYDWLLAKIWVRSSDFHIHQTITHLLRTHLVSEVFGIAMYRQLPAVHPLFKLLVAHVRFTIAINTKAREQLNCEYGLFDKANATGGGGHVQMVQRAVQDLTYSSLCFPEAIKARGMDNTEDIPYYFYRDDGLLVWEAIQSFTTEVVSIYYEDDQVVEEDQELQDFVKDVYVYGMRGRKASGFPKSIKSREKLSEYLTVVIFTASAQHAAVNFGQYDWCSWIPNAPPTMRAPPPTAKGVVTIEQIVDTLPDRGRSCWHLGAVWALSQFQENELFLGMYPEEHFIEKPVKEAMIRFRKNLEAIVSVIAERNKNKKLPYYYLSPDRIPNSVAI
Experimental: Rat basophilic leukemia cells (RBL-1) were grown in Eagle's Minimal Essential Medium containing 10% fetal calf serum. 5% calf serum, 1% glutamine and 50 mg/l gentamycin were maintained at 37° C. in an atmosphere containing 5% CO2. Exponentially growing cells were harvested by centrifugation at 400×g for 10 minutes at 4° C. and were washed once with Dulbecco's phosphate buffered saline containing 0.87 mM CaCl2. The cells were resuspended in the same buffer at a concentration of 1.85×10^7 cells/ml.
RBL-1 cells (1.57×10^7 cells/tube) were preincubated for 10 minutes at 37° C. in the presence of the indicated drugs or vehicle (1% DMSO). Following the transfer of the assay tubes to an icebath, the reaction was initiated by the sequential addition of calcium ionophore A23187, an agent which increases the ability of divalent ions such as Ca^++ to cross biological membranes (final concentration=1.9 μM) and 55 μM 1-^14 C-arachidonic acid (New England Nuclear) at a final specific activity of 3000-4000 cpm/nmole. The final volume in each tube was 1 ml. The assay tubes were incubated at 37° C. for 5 minutes, and the reaction was stopped by transferring the tubes to ice and adjusting the pH of the reaction mixture to pH 3.0-3.5 by the addition of 1M citric acid.
In order to isolate the Δ5 -lipoxygenase product, ^14 C-5-HETE that was formed from arachidonic acid, each assay tube was extracted once with 6 volumes of anhydrous diethyl ether. In most assays, the recovery of product was estimated by determining the total amount of radioactivity recovered after extraction. In the remaining assays the recovery of ^14 C-5-HETE was monitored by addition of trace quantities of ^3 H-5-HETE (New England Nuclear) prior to extraction. The ether fractions from each sample were dried under nitrogen, redissolved and spotted on Gleman silica gel-impregnated glass fiber sheets. The plates were developed in iso-octane:2-butanone:glacial acetic acid (100:9:1). The area of each plate corresponding to added 5-HETE standard was visualized in an iodine chamber. The amount of ^14 C-5-HETE presented was quantitated by liquid scintillation counting in Aquasol II (New England Nuclear) and corrected for recovery. The percent inhibition of lipoxygenase activity represents the decrease in the amount of product formed from arachidonic acid by the cells or cell supernatant in the presence of drug. The values for negative controls (assays incubated on ice in the presence of citric acid) were always less than 10% of the positive controls and were subtracted from each tube. The IC50 is the concentration of drug which is required for 50% inhibition of the enzyme, as determined graphically from assays using multiple concentrations of drug.

[1] = system: Lewis strain laboratory rats; test: In vivo alleviation of inflammation: Mycobacterium butyricum-induced polyarthritis, inhibition of paw volume increase; parameters: species or system rat (Lewis strain); settings: Rattus norvegicus, po, five consecutive days from day 10, paw volume about 4 h after final dose, read-out: % Inhibition Oral Dosage (percentage inhibition of pad swelling); for inhibition in vivo at 50 mg/kg: 50 mg/kg p.o.
Experimental: Polyarthritis was induced in Lewis strain laboratory rats (weight=about 200 grams) by injection of a suspension of Mycobacterium butyricum in mineral oil into the subplantar tissue of the mammals' hind paws. On day 10 after the injection, the rats were assigned to groups, and paw volumes and body weights were recorded. Paw volumes of the contralateral, uninjected hind paw were determined by mercury plethylsmography. Per os (p.o.) dosing began and continued for five consecutive days thereafter. On day 14 after the initial injection, approximately four hours after the final dose was administered, paw volumes and body weights were recorded and quantitated.
Anti-inflammatory activity of the substituted naphthalene compounds is expressed as the present inhibition of paw volume increase.

IC50 (5-lipoxygenase) | Structure (SMILES) | inhibition in vivo at 40 mg/kg ([1]; 40 mg/kg p.o.) | inhibition in vivo at 50 mg/kg [1] | inhibition in vivo at 22 mg/kg ([1]; 22 mg/kg p.o.)
370 nM | CCCCN(O)C(=O)CCCCC(=O)c1ccc2cc(OC)ccc2c1 [Example 18, N-Butyl-N-hydroxy-6-(6-methoxy-2-naphthyl)-6-oxohexanamide] |  |  | 
250 nM | COc1ccc2cc(C(=O)CCCCC(=O)N(C)O)ccc2c1 [Example 15, N-Hydroxy-N-methyl-6-(6-methoxy-2-naphthyl)-6-oxohexanamide] | 34% |  | 
> 10000 nM | C=CCOc1ccc2cc(C(=O)CCCCC(=O)OCC)ccc2c1 [Example 12, Ethyl 6-(6-allyloxy-2-naphthyl)-6-oxohexanoate] |  | 44% | 
 | CCOC(=O)CCCCCCC(=O)c1ccc2cc(OC)ccc2c1 [Example 1, Ethyl 8-(6-methoxy-2-naphthyl)-8-oxooctanoate] |  | 48% | 
110 nM | CCN(O)C(=O)CCCCC(=O)c1ccc2cc(OC)ccc2c1 [Example 17, N-Ethyl-N-hydroxy-6-(6-methoxy-2-naphthyl)-6-oxohexanamide] |  | 23% | 
> 10000 nM | COc1ccc2cc(C(=O)CCCCC(=O)N(C)OC)ccc2c1 [Example 23, N-Methoxy-N-methyl-6-(6-methoxy-2-naphthyl)-6-oxohexanamide] |  | 60% | 
> 10000 nM | CCOC(=O)CCCCC(=O)c1ccc2cc(OC)ccc2c1 [Example 2, Ethyl 6-(6-methoxy-2-naphthyl)-6-oxohexanoate] |  |  | 50%
10000 nM | COc1ccc2cc(C(=O)CCCCC(=O)NO)ccc2c1 [Example 16, N-Hydroxy-6-(6-methoxy-2-naphthyl)-6-oxohexanamide] |  |  | 
1600 nM | CCCCCCCN(O)C(=O)CCCCC(=O)c1ccc2cc(OC)ccc2c1 [Example 19, N-Heptyl-N-hydroxy-6-(6-methoxy-2-naphthyl)-6-oxohexanamide] |  |  | 
100 nM | COc1ccc2cc(C(=O)CCCCC(=O)N(O)c3ccccc3)ccc2c1 [Example 22, N-Hydroxy-N-phenyl-6-(6-methoxy-2-naphthyl)-6-oxohexanamide] |  | 28% | 
400 nM | COc1ccc2cc(C(=O)CCCCC(=O)N(O)C3CCCCC3)ccc2c1 [Example 21, N-Hydroxy-N-cyclohexyl-6-(6-methoxy-2-naphthyl)-6-oxohexanamide] |  | 33% | 
 | COc1ccc2cc(C(=O)CCCCCCC(=O)O)ccc2c1 [Example 6, 8-(6-Methoxy-2-naphthyl)-8-oxooctanoic acid] |  | 47% | 
 | COC(=O)CCCCCCC(=O)c1ccc2cc(OC)ccc2c1 [Example 4, Methyl 8-(6-methoxy-2-naphthyl)-8-oxooctanoate] |  | 53% | 
120 nM | COc1ccc2cc(C(=O)CCCCC(=O)N(O)C(C)C)ccc2c1 [Example 24, N-Hydroxy-N-isopropyl-6-(6-methoxy-2-naphthyl)-6-oxohexanamide] |  | 51% | 
450 nM | COc1ccc2cc(C(=O)CCCCC(=O)N(O)C(C)(C)C)ccc2c1 [Example 20, N-tert-Butyl-N-hydroxy-6-(6-methoxy-2-naphthyl)-6-oxohexanamide] |  |  | 
> 10000 nM | CCOC(=O)CCCCC(=O)c1ccc2cc(O)ccc2c1 [Example 8, Ethyl 6-(6-hydroxy-2-naphthyl)-6-oxohexanoate] |  | 12% | 
 | C#CCOc1ccc2cc(C(=O)CCCCC(=O)OCC)ccc2c1 [Example 14, Ethyl 6-(6-propynyloxy-2-naphthyl)-6-oxohexanoate] |  | 23% | 
